In patent publication US20140303045A1, “Biocidal Systems and Methods of Use” (Kemira Oyj, priority 2013, published 2014):
Entries after “also recorded” stand apart in the source; their conditions may differ.

Key:
[1] = pH assessment and visual compatibility of first biocide with AMA-324 in polymer solution; type: physicochemical; conditions: for pH end: AMA-324 plus first biocide mixed 30 minutes, AMA-324 alone stirred 40 minutes; for pH after addition of first biocide: polymer solution with AMA-324 100 ppm plus first biocide 100 ppm (active), DBNPA 50 ppm; for Observations on adjusted pH solution: polymer solution with AMA-324 plus first biocide, after pH adjustment, visual appearance
Protocol: Seven standard polymer solutions were prepared by preparing a commercially-available polyacrylamide polymer using standard methods. The polymer was added to artificial seawater formulation (approximately 27° C., with the pH adjusted to 6.5 and buffered accordingly) and the solution was mixed utilizing a magnetic stirrer to obtain 200 mL of a 300 ppm (active) polymer solution. After mixing, the initial pH of each polymer solution was measured and recorded. The pH was measured using a calibrated bench top pH meter.
After the initial pH reading, 1 mL of the AMA-324 stock solution was added to 200 mL of the polymer solution to provide 100 ppm (active) of the biocide, and mixed for 10 minutes. The pH of the solution with the AMA-324 was then measured and recorded.
Following pH measurement of the polymer solutions containing AMA-324, 1 mL of a first biocide component stock solution (as described in Table 1) was added to each polymer mixture. The concentration of the biocide stock solutions were prepared to provide 100 ppm (active) in the polymer solution, except for DBNPA which was evaluated at 50 ppm (active). The polymer solutions with the AMA-324 and the first biocide components were mixed for 30 minutes, after which the pH was again measured.
Finally, one control experiment was performed with only the addition of AMA-324 to the polymer solution, stirred for 40 minutes with no other biocide addition.

SRB = assay: Planktonic biocide efficacy, MPN enumeration, SRB; type: cell-based; conditions: FIG. 8 versus FIG. 14

Row | Molecule | pH end [1] | pH after addition of first biocide [1] | Observations on adjusted pH solution [1] | Synergistic effect of dual biocide system with AMA-324 (SRB) | Observations on adjusted pH solution ([1]; listed as ADBAC Quat)
1 | N#CC(Br)(Br)C(N)=O [DBNPA, 2,2-dibromo-3-nitrilopropionamide] | 8.44 | 8.04 | some turbidity; also recorded: cloudy |  | 
2 | O=CCCCC=O [GLUT, Glutaraldehyde] | 9.12 | 9.29 | clear | synergistic effect | 
3 | C12-16-alkyl dimethyl benzyl ammonium chloride [ADBAC quat] | 9.18 | 9.57 | cloudy |  | some turbidity
4 | tetrakis(hydroxymethyl) phosphonium sulfate [THPS] | 7.13 | 6.8 | clear | synergistic effect | 
